Results published in patent US20220340566A1, “BENZYL AMINE-CONTAINING 5,6-HETEROAROMATIC COMPOUNDS USEFUL AGAINST MYCOBACTERIAL INFECTION” (priority 2019, published 2022).

Columns and labels:
[1] = system: Mycobacterium avium ATCC700898; test: Determination of IC85 against M. avium (resazurin fluorescence); assay type: cell-based; conditions: Mycobacterium avium, ATCC700898, M. avium ATCC700898, CAMHB medium, 37° C., 3 days incubation then resazurin, fluorescence one day later; read-out: IC85
[2] = Metabolic stability test in pooled human liver microsomes; assay type: in vitro ADME; conditions: human liver microsomes 0.5 mg protein/mL, 1 mmol/L NADPH, 37° C., 30 minutes
Experimental: Using a commercially available pooled human liver microsomes, a compound of the present invention was reacted for a constant time, a remaining rate was calculated by comparing a reacted sample and an unreacted sample, thereby, a degree of metabolism in liver was assessed.
A reaction was performed (oxidative reaction) at 37° C. for 0 minute or 30 minutes in the presence of 1 mmol/L NADPH in 0.2 mL of a buffer (50 mmol/L Tris-HCl pH 7.4, 150 mmol/L potassium chloride, 10 mmol/L magnesium chloride) containing 0.5 mg protein/mL of human liver microsomes. After the reaction, 50 μL of the reaction solution was added to 100 μL of a methanol/acetonitrile=1/1 (v/v), mixed and centrifuged at 3000 rpm for 15 minutes. The compound of the present invention in the supernatant was quantified by LC/MS/MS or solid phase extraction (SPE)/MS, and a remaining amount of the compound of the present invention after the reaction was calculated, letting a compound amount at 0 minute reaction time to be 100%.

Row | SMILES | IC85 [1] [nM] | MS_h_% (remaining amount of compound after reaction, 0 minute = 100%) [2] [%]
1 | Cc1ccn2nc(C)c(C(=O)NCc3ccc(N4CCN(c5ccc(OC(F)(F)F)cc5)[C@H](C)C4)c(F)c3)c2c1.Cl [Compound I-1-71] | 100 | 78
2 | Cc1ccn2nc(C)c(C(=O)NCc3ccc(C4CCN(c5ccc(OC(F)(F)F)cc5)CC4)c(F)c3)c2c1.Cl [Compound I-1-72] | 66 | 87
3 | CCOc1ccc(N2CCC(c3ccc(CNC(=O)c4c(CC)nc5ccc(Cl)cn45)cc3F)CC2)cc1.Cl [Compound I-1-73] | 19 | 90
4 | CCc1nc2ccc(Cl)cn2c1C(=O)NCc1ccc(C2CCN(c3ccc(OC4CC4)cc3)CC2)c(F)c1.Cl [Compound I-1-74] | 39 | 64
5 | CCc1nc2ccc(Cl)cn2c1C(=O)NCc1ccc(C2CCN(c3ccc(OCC4CC4)cc3)CC2)c(F)c1.Cl [Compound I-1-75] | 16 | 71
6 | CCc1nc2ccc(Cl)cn2c1C(=O)NCc1ccc(C2CCN(c3ccc(OCC4CC4)nc3)CC2)c(F)c1.Cl [Compound I-1-76] | 46 | 80
7 | CCc1nc2ccc(Cl)cn2c1C(=O)NCc1ccc(C2CCN(c3ccc(OCC4CC4)cn3)CC2)c(F)c1.Cl [Compound I-1-77] | 22 | 59
8 | CCCCOc1ccc(N2CCC(c3ccc(CNC(=O)c4c(CC)nc5ccc(Cl)cn45)cc3F)CC2)cc1.Cl [Compound I-1-78] | 37 | 69
9 | CCc1nc2ccc(Cl)cn2c1C(=O)NCc1ccc(C2CCN(c3ccc(OCC(C)C)cn3)CC2)c(F)c1.Cl [Compound I-1-79] | 36 | 65
10 | CCc1nc2ccc(Cl)cn2c1C(=O)NCc1ccc(N2CCC(c3ccc(OC(F)(F)F)cc3)CC2)c(Cl)c1.Cl [Compound I-1-80] | 60 | 74
11 | Cc1ccn2c(C(=O)NCc3ccc(N4CCC(c5ccc(OC(F)(F)F)cc5)CC4)cc3F)c(C)nc2c1.Cl [Compound I-1-81] | 330 | 94
12 | Cc1ccn2c(C(=O)NCc3ccc(N4CCC(c5ccc(OC(F)(F)F)cc5)CC4)c(Cl)c3)c(C)nc2c1.Cl [Compound I-1-82] | 500 | 98
13 | CCc1nc2cc(Cl)ccn2c1C(=O)NCc1ccc(N2CCN(c3ccc(OC(F)(F)F)cc3)[C@H](C)C2)c(F)c1.Cl [Compound I-1-83] | 620 | 85
14 | Cc1nc2ccc(F)cn2c1C(=O)NCc1ccc(N2CCN(c3ccc(OC(F)(F)F)cc3)[C@H](C)C2)c(F)c1.Cl [Compound I-1-84] | 38 | 86
15 | Cc1nc2ccc(Cl)cn2c1C(=O)NCc1ccc(N2CCN(c3ccc(OC(F)(F)F)cc3)[C@H](C)C2)c(F)c1.Cl [Compound I-1-85] | 6.9 | 91
16 | CCc1nc2ccc(Cl)cn2c1C(=O)NCc1ccc([C@@H]2CO[C@@H](c3ccc(OC(F)(F)F)cc3)CO2)c(F)c1 [Compound I-1-86] | 28 | 77
17 | CCc1nc2cc(F)ccn2c1C(=O)NCc1ccc(N2CC=C(c3ccc(OC(F)(F)F)cc3)CC2)c(F)c1.Cl [Compound I-1-87] | 7.9 | 86
18 | CCc1nc2cc(F)ccn2c1C(=O)NCc1cc(F)c(N2CCC(c3ccc(OC(F)(F)F)cc3)CC2)c(F)c1.Cl [Compound I-1-88] | 6.1 | 89
19 | COc1ccn2nc(C)c(C(=O)NCc3ccc(C4CCN(c5ccc(OC(F)(F)F)cc5)CC4)c(F)c3)c2c1.Cl [Compound I-1-89] | 7.2 | 65

Row | SMILES | IC85 [1] [nM] | MS_h_% (remaining amount of compound after reaction, 0 minute = 100%) [2] [%]
20 | COc1ccn2nc(C)c(C(=O)NCc3ccc(N4CCN(c5ccc(OC(F)(F)F)cc5)[C@@H](C)C4)c(F)c3)c2c1.Cl [Compound I-1-90] | 5.2 | 91
21 | COc1ccn2nc(C)c(C(=O)NCc3ccc(N4CCN(c5ccc(OC(F)(F)F)cc5)[C@H](C)C4)c(F)c3)c2c1.Cl [Compound I-1-91] | 5.3 | 89
22 | CCc1nc2ccc(Cl)cn2c1C(=O)NCc1cc(F)c(N2CCN(c3ccc(OC(F)(F)F)cc3)[C@@H](C)C2)c(F)c1.Cl [Compound I-1-92] | 5.5 | 66
23 | CCc1nc2ccc(Cl)cn2c1C(=O)NCc1ccc(N2CCN(c3ccc(OC(F)(F)F)cc3)[C@@H](C)C2)c(F)c1F.Cl [Compound I-1-93] | 11 | 67
24 | CCc1nc2ccc(Cl)cn2c1C(=O)NCc1cc(F)c(N2CCN(c3ccc(OC(F)(F)F)cc3)[C@@H](C)C2)cc1F.Cl [Compound I-1-94] | 14 | 67
25 | CCc1nc2cc(F)ccn2c1C(=O)NCc1cc(F)c(N2CCN(c3ccc(OC(F)(F)F)cc3)[C@@H](C)C2)c(F)c1.Cl [Compound I-1-95] | 2.2 | 91
26 | CCc1nc2cc(F)ccn2c1C(=O)NCc1ccc(N2CCN(c3ccc(OC(F)(F)F)cc3)[C@@H](C)C2)c(F)c1F.Cl [Compound I-1-96] | 11 | 90
27 | CCc1nc2cc(F)ccn2c1C(=O)NCc1cc(F)c(N2CCN(c3ccc(OC(F)(F)F)cc3)[C@@H](C)C2)cc1F.Cl [Compound I-1-97] | 7.2 | 86
28 | CCc1nc2ccc(Cl)cn2c1C(=O)NCc1ccc(N2CCN(c3ccc(OC(F)(F)F)cc3F)[C@@H](C)C2)c(F)c1.Cl [Compound I-1-98] | 8.8 | 76
29 | CCc1nc2ccc(Cl)cn2c1C(=O)NCc1ccc(N2CCN(c3ncc(C(F)(F)F)cc3F)[C@@H](C)C2)c(F)c1.Cl [Compound I-1-99] | 35 | 77
30 | CCOc1ccc(N2CCN(c3ccc(CNC(=O)c4c(CC)nc5ccc(Cl)cn45)c(F)c3)C[C@@H]2C)cc1.Cl [Compound I-1-100] | 46 | 65
31 | CCOc1ccc(N2CCN(c3ccc(CNC(=O)c4c(CC)nc5ccc(Cl)cn45)c(F)c3)C[C@@H]2C)c(F)c1.Cl [Compound I-1-101] | 470 | 90
32 | CCc1nc2ccc(Cl)cn2c1C(=O)NCc1ccc(N2CCN(c3ccc(OCC4CC4)cc3)[C@@H](C)C2)cc1F.Cl [Compound I-1-102] | 24 | 75
33 | CCCCOc1ccc(N2CCN(c3ccc(CNC(=O)c4c(CC)nc5ccc(Cl)cn45)c(F)c3)C[C@@H]2C)cc1.Cl [Compound I-1-103] | 19 | 64
34 | Cc1nn2ccccc2c1C(=O)NCc1ccc(N2CCN(c3ccc(OC(F)(F)F)cc3)[C@@H](C)C2)c(F)c1.Cl [Compound I-1-104] | 92 | 72
35 | Cc1nn2cc(F)ccc2c1C(=O)NCc1ccc(N2CCN(c3ccc(OC(F)(F)F)cc3)[C@@H](C)C2)c(F)c1.Cl [Compound I-1-105] | 59 | 77
36 | CCc1nc2ccc(Cl)cn2c1C(=O)NCc1ccc(C2CCN(c3ccc(OC(F)(F)F)cc3)[C@@H](C)C2)c(F)c1.Cl (stereo partly shown) [Compound I-1-106] | 6.2 | 59
37 | CCc1nc2ccc(Cl)cn2c1C(=O)NCc1ccc(C2=C[C@H](C)N(c3ccc(OC(F)(F)F)cc3)CC2)c(F)c1.Cl [Compound I-1-107] | 7 | 71
38 | CCc1nc2cc(F)ccn2c1C(=O)NCc1ccc(N2CCN(c3ccc(OC(F)(F)F)cn3)[C@@H](C)C2)c(F)c1.Cl [Compound I-1-108] | 4.2 | 71
